Experimental data: US20210402016A1, “RADIOLABELED BOMBESIN-DERIVED COMPOUNDS FOR IN VIVO IMAGING OF GASTRIN-RELEASING PEPTIDE RECEPTOR (GRPR) AND TREATMENT OF GRPR-RELATED DISORDERS” (Provincial Health Services Authority, priority 2018, published 2021)
Where two headings read alike, the source gives them in different places.

Assay: Biodistribution in PC-3 tumor-bearing NRG mice (Example 1)
Assay type: in vivo
Conditions: male, NRG (NOD.Cg-Rag1tm1Mom Il2rgtm1Wjl/SzJ), mouse, iv, 1.84 MBq, total radioactivity; for tissue uptake at 0.5 h: 30 min p.i.; for tissue uptake at 1 h: 60 min p.i.; for tissue uptake at 2 h: 120 min p.i.
Experimental: The mice were sacrificed by CO2 inhalation at 30 min, 1 h, and 2 h p.i. Blood was collected by cardiac puncture. Organs/tissues were harvested, rinsed with PBS, blotted dry, and weighed. The activity in tissues was assayed by gamma counter and expressed as the percentage injected dose per gram of tissue (% ID/g).

[1] = PC-3 tumor, read-out: Biodistribution PC-3 Tumor, Mean
[2] = adrenals, read-out: Biodistribution Adrenals, Mean
[3] = bone, read-out: Biodistribution Bone, Mean
[4] = brain, read-out: Biodistribution Brain, Mean
[5] = fat, read-out: Biodistribution Fat, Mean
[6] = intestine, read-out: Biodistribution Intestine, Mean
[7] = kidney, read-out: Biodistribution Kidney, Mean
[8] = liver, read-out: Biodistribution Liver, Mean
[9] = lung, read-out: Biodistribution Lung, Mean
[10] = muscle, read-out: Biodistribution Muscle, Mean
[11] = pancreas, read-out: Biodistribution Pancreas, Mean
[12] = seminal glands, read-out: Biodistribution Seminal glands, Mean
[13] = spleen, read-out: Biodistribution Spleen, Mean
[14] = testes, read-out: Biodistribution Testes, Mean
[15] = whole blood, read-out: Biodistribution Blood, Mean

Q: With CC(C)C[C@@H](CN1CCC[C@H]1C(N)=O)NC(=O)[C@H](Cc1c[nH]cn1)NC(=O)CNC(=O)[C@@H](NC(=O)[C@H](C)NC(=O)[C@H](Cc1c[nH]c2ccccc12)NC(=O)[C@H](CCC(N)=O)NC(=O)[C@@H](Cc1ccccc1)NC(=O)COCC(=O)Nc1ccc(CNC(=O)CN2CCN(CC(=O)O)CCN(CC(=O)O)CCN(CC(=O)O)CC2)cc1)C(C)C [^68Ga-ProBOMB1, metal not drawn] as the compound, how does the tissue uptake at 0.5 h [1] read?
A: The tissue uptake at 0.5 h was 4.62 %ID/g.

Q: What about the tissue uptake at 1 h [1] of the same compound?
A: Its tissue uptake at 1 h is 8.17 %ID/g.

Q: What about the tissue uptake at 2 h [1] of the same compound?
A: The tissue uptake at 2 h was 8.31 %ID/g.

Q: And the tissue uptake at 0.5 h [2]?
A: The tissue uptake at 0.5 h was 0.95 %ID/g.

Q: And the tissue uptake at 1 h [2]?
A: The tissue uptake at 1 h was 0.65 %ID/g.

Q: And the tissue uptake at 2 h [2]?
A: Its tissue uptake at 2 h is 1.23 %ID/g.

Q: And the tissue uptake at 0.5 h [3]?
A: Its tissue uptake at 0.5 h is 0.22 %ID/g.

Q: And the tissue uptake at 1 h [3]?
A: Its tissue uptake at 1 h is 0.26 %ID/g.

Q: What about the tissue uptake at 2 h [3] of the same compound?
A: The tissue uptake at 2 h was 0.39 %ID/g.

Q: What about the tissue uptake at 0.5 h [4] of the same compound?
A: The tissue uptake at 0.5 h was 0.02 %ID/g.

Q: And the tissue uptake at 1 h [4]?
A: The tissue uptake at 1 h was 0.02 %ID/g.

Q: And the tissue uptake at 2 h [4]?
A: The tissue uptake at 2 h was 0.03 %ID/g.

Q: And the tissue uptake at 0.5 h [5]?
A: Its tissue uptake at 0.5 h is 0.17 %ID/g.

Q: And the tissue uptake at 1 h [5]?
A: The tissue uptake at 1 h was 0.06 %ID/g.

Q: And the tissue uptake at 2 h [5]?
A: The tissue uptake at 2 h was 0.07 %ID/g.

Q: And the tissue uptake at 0.5 h [6]?
A: The tissue uptake at 0.5 h was 2.63 %ID/g.

Q: And the tissue uptake at 1 h [6]?
A: Its tissue uptake at 1 h is 2.47 %ID/g.

Q: What about the tissue uptake at 2 h [6] of the same compound?
A: Its tissue uptake at 2 h is 1.68 %ID/g.

Q: And the tissue uptake at 0.5 h [7]?
A: Its tissue uptake at 0.5 h is 2.83 %ID/g.

Q: And the tissue uptake at 1 h [7]?
A: The tissue uptake at 1 h was 1.4 %ID/g.

Q: And the tissue uptake at 2 h [7]?
A: Its tissue uptake at 2 h is 0.78 %ID/g.

Q: And the tissue uptake at 0.5 h [8]?
A: The tissue uptake at 0.5 h was 1.93 %ID/g.

Q: And the tissue uptake at 1 h [8]?
A: Its tissue uptake at 1 h is 1.21 %ID/g.

Q: And the tissue uptake at 2 h [8]?
A: The tissue uptake at 2 h was 0.75 %ID/g.

Q: What about the tissue uptake at 0.5 h [9] of the same compound?
A: The tissue uptake at 0.5 h was 0.54 %ID/g.

Q: What about the tissue uptake at 1 h [9] of the same compound?
A: The tissue uptake at 1 h was 0.35 %ID/g.

Q: And the tissue uptake at 2 h [9]?
A: Its tissue uptake at 2 h is 0.25 %ID/g.

Q: What about the tissue uptake at 0.5 h [10] of the same compound?
A: Its tissue uptake at 0.5 h is 0.36 %ID/g.

Q: And the tissue uptake at 1 h [10]?
A: Its tissue uptake at 1 h is 0.09 %ID/g.

Q: And the tissue uptake at 2 h [10]?
A: Its tissue uptake at 2 h is 0.08 %ID/g.

Q: And the tissue uptake at 0.5 h [11]?
A: Its tissue uptake at 0.5 h is 10.3 %ID/g.

Q: What about the tissue uptake at 1 h [11] of the same compound?
A: Its tissue uptake at 1 h is 4.68 %ID/g.

Q: And the tissue uptake at 2 h [11]?
A: The tissue uptake at 2 h was 1.55 %ID/g.

Q: What about the tissue uptake at 0.5 h [12] of the same compound?
A: Its tissue uptake at 0.5 h is 0.17 %ID/g.

Q: What about the tissue uptake at 1 h [12] of the same compound?
A: Its tissue uptake at 1 h is 1.08 %ID/g.

Q: And the tissue uptake at 2 h [12]?
A: Its tissue uptake at 2 h is 0.43 %ID/g.

Q: What about the tissue uptake at 0.5 h [13] of the same compound?
A: Its tissue uptake at 0.5 h is 0.5 %ID/g.

Q: And the tissue uptake at 1 h [13]?
A: The tissue uptake at 1 h was 0.44 %ID/g.

Q: What about the tissue uptake at 2 h [13] of the same compound?
A: The tissue uptake at 2 h was 0.31 %ID/g.

Q: What about the tissue uptake at 0.5 h [14] of the same compound?
A: The tissue uptake at 0.5 h was 0.31 %ID/g.

Q: What about the tissue uptake at 1 h [14] of the same compound?
A: Its tissue uptake at 1 h is 0.11 %ID/g.

Q: And the tissue uptake at 2 h [14]?
A: The tissue uptake at 2 h was 0.09 %ID/g.

Q: And the tissue uptake at 0.5 h [15]?
A: Its tissue uptake at 0.5 h is 1.06 %ID/g.

Q: And the tissue uptake at 1 h [15]?
A: The tissue uptake at 1 h was 0.4 %ID/g.

Q: And the tissue uptake at 2 h [15]?
A: The tissue uptake at 2 h was 0.13 %ID/g.
